{"source": "patent US7659277B2", "about": "“Ubiquitin ligase inhibitors and methods related thereto” (Proteologies, Ltd., priority 2003, dated 2010)", "key": {"[1]": {"tested_on": "HIV-1", "assay": "HIV maturation (budding) in virus-like particle assay, HIV-1 p24 antigen ELISA", "format": "cell-based", "conditions": "Human immunodeficiency virus 1, read-out: Budding (3 μM)", "description": "Compounds were further assessed for effects on maturation of HIV particles in a virus-like particle assay."}, "[2]": {"molecular_target": "T1, POSH (Homo sapiens, UniProt Q7Z6J0)", "T1 construct": "GST-POSH lot NB81/p.118 3.6 mg/ml; fused on or other part: GST tag, used for detection with anti-GST XL665", "T1 sequence (Q7Z6J0 1-269 limits assumed)": "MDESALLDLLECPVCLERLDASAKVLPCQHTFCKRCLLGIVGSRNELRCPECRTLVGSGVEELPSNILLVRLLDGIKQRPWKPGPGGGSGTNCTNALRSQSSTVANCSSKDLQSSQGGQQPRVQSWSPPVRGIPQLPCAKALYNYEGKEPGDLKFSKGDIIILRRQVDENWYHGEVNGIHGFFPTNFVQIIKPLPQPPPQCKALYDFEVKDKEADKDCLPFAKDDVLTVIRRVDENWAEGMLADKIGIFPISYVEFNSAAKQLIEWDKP", "assay": "IC50 assay procedure: GST-POSH auto-ubiquitination, homogeneous time-resolved fluorescence (Ub-cryptate / anti-GST XL665)", "format": "biochemical", "conditions": "ubiquitin ligase activity of POSH; GST-POSH 33 nM, 30 min preincubation", "description": "In certain preferred embodiments, agents that inhibit (or promote) the ubiquitin ligase activity of a ubiquitin ligase, such as POSH, may be identified using a homogenous time resolved fluorescence assay. Such an assay may employ a GST fused to the RING subunit of a ubiquitin ligase (e.g. POSH). Two flurophore-conjugated detection reagents are also used: anti-GSTXL665 and europium cryptate labeled ubiqutin. The ubiqutination of the ubiquitin ligase by ubiqutin cryptate and binding of the anti-GST tagged XL665 brings the fluorophores into close proximity allowing FRET reaction to occur. Accordingly, FRET serves as a measurement of ubiquitination of the ubiquitin ligase. An enzymatic system may be set up to provide activated ubiquitin, e.g., by providing ubiquitin, an E1 and an E2. Compounds that will not allow the FRET reaction are considered to be inhibitors.\nStep 3: establish IC 50 value measurements.\nExperimental Protocols: 1. HTS Screening Assay Procedure • Microplates 10109D to 10114D compounds at 1 mM. • (Controls in column 1). • All compounds were perchase from ChemBridge corporation: ChemBridge corporation 16981 Via Tazon, Suite G San Diego, Calif. 92127 a. Microplates Labeling • Put labels to 6 PS U-bottom clear microplate. • Put labels to 18 black microplates (triplicats). b. Microplates Preparation • Put 100 μl GST-POSH at 33 nM in wells of the clear PS U-bottom microplates (exept wells A1-D1). • Negative control: place 100 μl dH2O in wells A1-D1. • (Positive control: place 100 μl GST-POSH at 33 nM in wells E1-H1). • Put 8 μl enzymes solution ×4 to black microplates (column 1 to 11). c. Incubation of E3 with Compounds • Transfer 5 μl of compounds (at 1 mM) to the microplates containing 100 μl GST-POSH. • Add 5 μl of DMSO to controls column 1. • Incubation 30 minutes at RT. d. Enzymatic (Ubiquitination) and Final Steps • Distribution of (triplicate) 3×23 μl incubated compounds into 3 black microplates containing enzymatic solution (on splitting apparatus). • Incubation 30 minutes at 37° C. • Addition of 8 μl EDTA 0.5 M. • Incubation 15 (at least) minutes at RT. • Addition of 30 μl GST XL 665 in reconstitution buffer. • Incubation 45 (at least) minutes at RT. • Reading fluorescence. • Record results in computer. • Put sealing foil back on original and diluted microplates and keep at −70° C. • Always the plates must be closed with lids during each step. 2. […] Microplates Labeling • Put labels to 4 clear PP clear microplate (18.2 μM, 9.1 uM, 1.82 uM, 910 nM,). • Put labels to 5 clear PS U-bottom clear microplate 4.44 μM, 909, 444, 91 and 44 nM) • Put labels to 15 black microplates (triplicates). f. Original Microplate Dilutions • Put DMSO 40 μl to (18.2 μM, 1.82 uM plates) and 20 ul to (9.1 uM, 910 nM plates. • Mix by pipetation the original microplate (3× up and down 45 μl). • Transfer 10 μl of compounds from the original microplate (at 91 μM) to the next microplate (=18.2 μM) on splitting apparatus. • Mix by pipetation the 18.2 uM microplate (3× up and down 45 μl). • Transfer 20 μl of compounds from the 18.2 uM microplate to the next microplate (=9.1 μM) on splitting apparatus. • Mix by pipetation the 9.1 uM microplate (3× up and down 45 μl). • Transfer 10 μl of compounds from the 9.1 uM microplate to the next microplate (=1.82 μM) on splitting apparatus. • Mix by pipetation the 1.82 uM microplate (3× up and down 45 μl). • Transfer 20 μl of compounds from the 1.82 uM microplate to the next microplate (=910 nM) on splitting apparatus • Mix by pipetation. g. Microplates Preparation • Put 123 μl GST-POSH at 33 nM in wells of the 5 clear PS U-bottom clear microplates. • Positive control: place 123 μl GST-POSH at 33 nM in well A12-h12 13 μl DMSO. • Negative control: place 123 μl dH2O in well B1 and 13 μl DMSO. • Put 8 μl enzymes solution ×4 to 15 black microplates. • Controls: put 8 μl enzymes solution ×4 to wells A1 to F1. h. […]"}}, "data": [{"smiles": "CCCOC(=O)c1ccc(/N=C/c2c(O)ccc3ccccc23)cc1", "note": "[Compound 69]", "values": [{"measurement": "activity at 3 µM", "setting": "[1]", "value": 41, "unit": "%"}, {"measurement": "IC50", "setting": "[2]", "value": 700, "unit": "nM"}]}, {"smiles": "Cc1c(Br)c(=O)oc2c(Br)c(O)c(O)cc12", "note": "[Compound 83]", "values": [{"measurement": "IC50", "setting": "[2]", "value": 1000, "unit": "nM"}]}, {"smiles": "O=C1/C(=C\\c2cc(Cl)ccc2O)Sc2ccccc21", "note": "[Compound 44]", "values": [{"measurement": "IC50", "setting": "[2]", "value": 650, "unit": "nM"}]}, {"smiles": "CC(C)(C)c1ccc(C2=N/C(=C\\c3cccs3)C(=O)O2)cc1", "note": "[Compound 48]", "values": [{"measurement": "activity at 3 µM", "setting": "[1]", "value": 58, "unit": "%"}, {"measurement": "IC50", "setting": "[2]", "value": 1300, "unit": "nM"}]}, {"smiles": "CC(=C\\c1ccccc1)/C=C1/NC(=S)NC1=O", "note": "[Compound 30]", "values": [{"measurement": "IC50", "setting": "[2]", "value": 2000, "unit": "nM"}]}]}
